Article PMC12505902, “Inhibitors of trehalose-6-phosphate synthase activity in fungal pathogens compromise thermal tolerance pathways” (mBio, 2025)

Target: T1, 6xHis-CaTps1 (Candida albicans, UniProt Q92410)
T1 construct: Briefly, the full-length; thrombin cleavage site (pET-28a linker) (N); made in house; host or cells: E. coli BL21(DE3)pLysS
T1 sequence (Q92410 1-478): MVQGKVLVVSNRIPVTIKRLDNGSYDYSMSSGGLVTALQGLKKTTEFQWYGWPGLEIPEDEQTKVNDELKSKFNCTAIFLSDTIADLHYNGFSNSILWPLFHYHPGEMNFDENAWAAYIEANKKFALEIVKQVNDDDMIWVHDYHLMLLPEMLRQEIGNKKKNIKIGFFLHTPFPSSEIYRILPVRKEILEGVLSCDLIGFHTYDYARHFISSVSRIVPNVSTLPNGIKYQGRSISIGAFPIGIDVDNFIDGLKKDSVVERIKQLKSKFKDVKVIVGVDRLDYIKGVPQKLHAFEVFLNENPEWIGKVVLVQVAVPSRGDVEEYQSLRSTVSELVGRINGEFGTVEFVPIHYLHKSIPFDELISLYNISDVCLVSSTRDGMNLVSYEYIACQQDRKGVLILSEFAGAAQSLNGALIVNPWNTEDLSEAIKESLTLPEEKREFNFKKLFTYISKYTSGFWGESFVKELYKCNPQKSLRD
Test: Spectrophotometric-coupled Tps1 enzyme activity assay
Type: biochemical, C. albicans
Details: 1 mM 4456dh, 4°C for 16 hours
Experimental: Fig 2 4456dh binds Tps1 and inhibits Tps1 activity. (A) Structure of 4456dh. (B and C) Glo-melt thermal shift assays reveal 4456dh destabilizes 6xHis-CaTps1 (B) and 6xHis-CnTps1 (C). The first derivative of the raw data was used to determine the melting temperature of 1 µM 6xHis-CaTps1 (B) and 1 µM 6xHis-CnTps1 (C) treated without (black) or with 2 mM 4456dh (red). […] The resulting dose-response curves were fitted to a one-site binding model to extract Kd values; the SD was calculated using the Kd values from each independent experiment (n = 3). (F) Tps1 enzyme activity assay with 5 µM 6xHis-CaTps1 (F) and 6xHis-CnTps1 (G) ±1 mM 4456dh. Error bars represent SE. […]
The ability of 4456dh to inhibit the activity of CaTps1 was tested using a spectrophotometric-coupled Tps1 enzyme assay, in which recombinant 6xHis-CaTps1 was incubated with 1 mM 4456dh at 4°C for 16 hours. […] Similarly, the effect of 1 mM 4456dh on 6xHis-CnTps1 activity was determined. […]
82 determined by SDS-PAGE analysis, were pooled and concentrated to 1 mg/mL for downstream […]
93 The data were acquired with MO.Control 1.5.3 (NanoTemper Technologies GmbH). Recorded
94 data were analyzed with MO.Affinity Analysis 2.2.7 (NanoTemper Technologies GmbH). […]
100 2X Glo-melt dye. Thermal denaturation was measured using an RT-PCR thermocycler (BioRad) […]
102 determined by identifying the inflection point of the derivative data. […]

For `Cn1cc(-c2csc(NC(=O)Cc3ccccn3)n2)cn1` [Compound 4456dh], the “reduction of 6xHis-CaTps1 activity” value was “approximately 30%”.
